Data as given in patent US20220110910A1, “CANNABINOID-CONTAINING COMPLEX MIXTURES FOR THE TREATMENT OF CYTOKINE RELEASE SYNDROME WHILE PRESERVING KEY ANTI-VIRAL IMMUNE REACTIONS” (GBS Global BioPharma, Inc., priority 2020, published 2022).
Entries after “also recorded” stand apart in the source; their conditions may differ.

Tests used:
Assay type in all cases: cell-based, human
[1] = tested on: monocytes; test: IL-1β ELISA in supernatants of LPS-stimulated PBMC; details: LPS 1000 ng/mL, vs vehicle
Protocol: (§1) In immunological activity experiments, PBMC suspensions were pre-treated with cannabinoid and/or terpene compounds for 30 minutes before treatment with designated stimuli, cultured in 96 well tissue culture plates, and incubated at 37° C. and 5.0% CO2. In pDC experiments, cell suspensions were stimulated with CpG-ODN Type A 2216 (15 μg/mL) (InvivoGen©, San Diego, Calif.) following treatment with cannabinoids. Golgi transport inhibitors Monensin (2 μM)/Brefeldin A (3.0 μg/mL) (Thermo Fisher Scientific, Waltham, Mass.) were added to culture 3 hours post-stimulation, and after 7 hours of stimulation cells were harvested for evaluation by flow cytometry for IFNα and TNFα. In monocyte experiments, cell suspensions were stimulated with 1000 ng/mL LPS (S. typhosa, Sigma Aldrich, St. Louis, Mo.) for 18 hours before harvesting supernatants for IL-1β, Golgi blocked for 6 hours before harvesting cells for assessment of IL-6, or cultured for 48 hours before harvesting cells for assessment of HLA-DR, CD80, and CD86. In phagocytosis experiments, cell suspensions were treated with 3.0 mg/mL of pHrodo Green BioParticles (Thermo Fisher). In T cell experiments, cells were plated on 96 well tissue culture plates pre-coated with 5.0 μg/mL anti-CD3 (clone UCHT1, Biolegend, San Diego, Calif.) and stimulated with 5.0 μg/mL anti-CD28 (clone 28.2, Biolegend) and supplemented with 5.0 ng/mL IL-2 (Roche Applied Science, Indianapolis, Ind.). CD25 and CD69 were assessed by flow cytometry 24 hours post-stimulation. In proliferation experiments, cell suspensions were incubated with CFSE Cell Division Tracker (Biolegend) according to manufacturer protocols, harvested 4 days post-stimulation and assessed by flow cytometry. Cell suspensions were further stimulated with 50 ng/mL phorbol 12-myristate 13-acetate (PMA) and 1000 ng/mL ionomycin (Io) at 4 days post-stimulation for 18 hours, Golgi blocked for 6 hours, and harvested for IL-4 and IFNγ assessment by flow cytometry.
To quantify IL-1β produced by monocytes, supernatants were collected from LPS stimulated cell suspensions after 18 hours and frozen at −80° C. ELISA MAX from Biolegend was used as per manufacturer protocol to quantify IL-1β to a sensitivity of […].

[2] = tested on: plasmacytoid dendritic cells (pDC); test: IFNα and TNFα in pDC of PBMC stimulated with CpG-ODN (intracellular staining); details: vs vehicle; for IFNα production by pDC: 0.01, 0.1, and 1.0 μM
Protocol: as §1
(§2) In brief, pDC, monocyte and T cell were identified using antibodies directed against unique epitopes for each cell type and analyzed by flow cytometry. Cells were fixed in BD CytoFix and resuspended in FACS buffer for extracellular staining. To determine the changes in cell viability in mixed PBMC, gates were first set on singlet events, then CD45+ cells, then populations identified by CD3+ (T cells) and CD14+ (monocytes), and then 7-AAD- for viability. Likewise, for pDC viability experiments, pDC were identified as CD303+ and viable by exclusion of Near IR L/D stain (Life Technologies, Carlsbad, Calif.). For intracellular staining, fixed cells were permeabilized in BD Permwash and incubated with appropriate antibodies and 7% human AB serum. pDC were identified as CD303+and assessed for intracellular IFNα and TNFα. Monocytes were identified as CD14+ and assessed for extracellular HLA-DR, CD80, CD86, and intracellular TNFα and IL-6. In phagocytosis experiments, PBMC were identified as CD45+ and monocytes were identified based on side scatter and then phagocytosing monocytes. T cells were identified as CD3+ and T cell subsets identified by CD4+ and CD8+ and assessed for extracellular CD25 and CD69 and intracellular IFNγ and IL-4. To analyze T cell proliferation, FlowJo 10.0 proliferation tool was used by setting the undivided peak of CFSE stained cells in each sample.

[3] = tested on: CD8+ T cells; test: T cell proliferation (CFSE, FlowJo Proliferation tool); details: 0.01 μM
Protocol: as §1
(§3) In brief, pDC, monocyte and T cell were identified using antibodies directed against unique epitopes for each cell type and analyzed by flow cytometry. Cells were fixed in BD CytoFix and resuspended in FACS buffer for extracellular staining. […] For intracellular staining, fixed cells were permeabilized in BD Permwash and incubated with appropriate antibodies and 7% human AB serum. pDC were identified as CD303+and assessed for intracellular IFNα and TNFα. Monocytes were identified as CD14+ and assessed for extracellular HLA-DR, CD80, CD86, and intracellular TNFα and IL-6. […] T cells were identified as CD3+ and T cell subsets identified by CD4+ and CD8+ and assessed for extracellular CD25 and CD69 and intracellular IFNγ and IL-4. […]

[4] = tested on: CD4+ T cells; test: as above; details: 0.01 μM
Protocol: as §1, §3

[5] = tested on: monocytes; test: Co-stimulatory markers HLA-DR, CD80, CD86 on monocytes after LPS; details: 2 days
Protocol: as §1, §2

[6] = tested on: monocytes; test: TNFα+ monocytes after CpG-ODN stimulation (intracellular staining); details: 10 μM; CpG-ODN 15 μg/mL, 6 hours; vs vehicle
Protocol: FIGS. 9A-9B reveal the TNFα decreasing potential of cannabinol (CBN). […] PBMC were isolated from human peripheral blood and pre-treated with the indicated concentrations of cannabinol for 30 minutes, followed by stimulation with 15 μg/mL CpG-ODN for 6 hours (FIG. 9A). Cells were non-enzymatically released from culture plates and assessed for the percentage of TNFα+ monocytes (FIG. 9A) by intracellular staining. For FIG. 9B, PBMC were isolated from human peripheral blood and pre-treated with the indicated concentrations of cannabinol for 30 minutes, followed by treatment with 3.0 mg/mL of pHrodo Green BioParticles (FIG. 9B). In FIG. 9B, cells were treated with 3.0 mg/mL of pHrodo Green BioParticles and assessed for phagocytosis monocytes by flow cytometry within 2 hours. Data are normalized to each donor's vehicle control when appropriate and presented as mean±SEM. N=4-6 donors per treatment group. […] *p<0.05 when compared to VH (FIG. 9A), or **p<0.01 when compared to VH (FIG. 9B), by repeated measure one-way ANOVA with Dunnett's posttest.
as §3

[7] = tested on: CD4+ T cells; test: Intracellular IFNγ and IL-4 after anti-CD3/anti-CD28 stimulation and PMA/ionomycin; details: vs vehicle
Protocol: as §1, §3

[8] = tested on: CD8+ T cells; test: Intracellular IFNγ after anti-CD3/anti-CD28 stimulation and PMA/ionomycin; details: 0.01-1 μM; vs vehicle
Protocol: as §1, §3

[9] = tested on: CD4+ T cells; test: T cell activation markers CD25 and CD69, 24 hours post-stimulation; details: concentration not given
Protocol: as §1, with “In T cell experiments, cells were plated on 96 well tissue culture plates pre-coated with 5.0 μg/mL anti-CD3 (clone UCHT1, Biolegend, San Diego, Calif.) and stimulated with 5.0 μg/mL anti-CD28 (clone 28.2, Biolegend) and supplemented with 5.0 ng/mL IL-2 (Roche Applied Science, Indianapolis, Ind.).” left out, “Cell suspensions were further stimulated with 50 ng/mL phorbol 12-myristate 13-acetate (PMA) and 1000 ng/mL ionomycin (Io) at 4 days post-stimulation for 18 hours, Golgi blocked for 6 hours, and harvested for IL-4 and IFNγ assessment by flow cytometry.” left out
as §3, with “cytometry.” for “cytometry. Cells were fixed in BD CytoFix and resuspended in FACS buffer for extracellular staining.”

[10] = tested on: monocytes; test: Phagocytosis of pHrodo Green BioParticles by monocytes; details: 10 μM; pHrodo Green BioParticles 3.0 mg/mL; vs vehicle
Protocol: as §1, with “In T cell experiments, cells were plated on 96 well tissue culture plates pre-coated with 5.0 μg/mL anti-CD3 (clone UCHT1, Biolegend, San Diego, Calif.) and stimulated with 5.0 μg/mL anti-CD28 (clone 28.2, Biolegend) and supplemented with 5.0 ng/mL IL-2 (Roche Applied Science, Indianapolis, Ind.).” left out, “Cell suspensions were further stimulated with 50 ng/mL phorbol 12-myristate 13-acetate (PMA) and 1000 ng/mL ionomycin (Io) at 4 days post-stimulation for 18 hours, Golgi blocked for 6 hours, and harvested for IL-4 and IFNγ assessment by flow cytometry.” left out
as §3, with “cytometry.” for “cytometry. Cells were fixed in BD CytoFix and resuspended in FACS buffer for extracellular staining.”

[11] = tested on: monocytes; test: IL-6+ monocytes after LPS stimulation (intracellular staining); details: 10 μM; LPS 1000 ng/mL; vs vehicle
Protocol: as §1, with “In T cell experiments, cells were plated on 96 well tissue culture plates pre-coated with 5.0 μg/mL anti-CD3 (clone UCHT1, Biolegend, San Diego, Calif.) and stimulated with 5.0 μg/mL anti-CD28 (clone 28.2, Biolegend) and supplemented with 5.0 ng/mL IL-2 (Roche Applied Science, Indianapolis, Ind.).” left out, “Cell suspensions were further stimulated with 50 ng/mL phorbol 12-myristate 13-acetate (PMA) and 1000 ng/mL ionomycin (Io) at 4 days post-stimulation for 18 hours, Golgi blocked for 6 hours, and harvested for IL-4 and IFNγ assessment by flow cytometry.” left out
as §3, with “cytometry.” for “cytometry. Cells were fixed in BD CytoFix and resuspended in FACS buffer for extracellular staining.”

[12] = indicated concentrations (0.001-10 μM)

In the case of `CCCCCc1cc(O)c2c(c1)OC(C)(C)[C@@H]1CCC(C)=C[C@@H]21` [THC, (6aR,10aR)-delta-9-tetrahydrocannabinol, reference compound], the IL-1β in monocytes ([1]; 10 μM) is reported as “significantly decreased”, the “IFNα in plasmacytoid dendritic cells (pDC)” value ([2]; 10 μM, CpG-ODN 15 μg/mL) is reported as “significantly decreased” and the “TNFα in plasmacytoid dendritic cells (pDC)” value ([2]; 10 μM, CpG-ODN 15 μg/mL) is reported as “significantly decreased”. For the same compound, the “proliferation of CD8+ T cells” value [3] was “significantly increased”, the “proliferation of CD4+ T cells” value [4] was “significantly increased” and the “CD80+ co-stimulatory marker in monocytes” value ([5]; 10 μM, vs vehicle) was “significantly decreased”. For the same compound, the “CD86+ co-stimulatory marker in monocytes” value [5, 12] was “did not cause a statistically significant change”, the “HLA-DR+ co-stimulatory marker in monocytes” value [5, 12] was “did not cause a statistically significant change” and the TNFα in monocytes [6] was “significantly decreased”.

In the case of `CCCCCc1cc(O)c(C/C=C(\C)CCC=C(C)C)c(O)c1` [CBG, cannabigerol], the IL-1β in monocytes ([1]; 10 μM) is reported as “significantly decreased”, the “IFNγ in CD4+ T cells” value ([7]; 0.01-1 μM) is reported as “significantly decreased” and the “IL-4 levels in CD4+ T cells” value ([7]; 0.1-1 μM) is reported as “significantly decreased”. For the same compound, the “HLA-DR co-stimulatory marker in monocytes” value ([5]; 10 μM, vs vehicle) was “increased; also recorded: enhanced”, the “CD86+ co-stimulatory marker in monocytes” value ([5]; 1-10 μM, vs vehicle) was “increased; also recorded: enhanced” and the “IFNγ in CD8+ T cells” value [8] was “significantly decreased”.

For `C=CC(C)(O)CC/C=C(\C)CCC=C(C)C` (stereo not drawn) [trans-nerolidol, trans nerolidol], the IL-1β in monocytes ([1]; 0.01 μM) was “enhanced”, the IL-1β in monocytes ([1]; 0.01 μM, listed as tN) was “significantly increased” and the “% CD25+ in CD4+ T cells (activation marker)” value [9] was “increased”.

For `C=C(C)[C@@H]1CCC(C)=C[C@H]1c1c(O)cc(CCCCC)cc1O` [CBD, cannabidiol, reference compound], the IL-1β in monocytes ([1]; 10 μM) was “significantly decreased”, the phagocytosis by monocytes [10] was “reduced; also recorded: significantly decreased” and the IL-6 in monocytes [11] was “significantly decreased”.

For `CC1=CCC2CC1C2(C)C` (stereo not drawn) [α-Pinene, α-pinene], the “IFNα production by pDC” value ([2]; CpG-ODN) was “significantly suppressed”, the “IFNα production by pDC” value ([2]; CpG-ODN, listed as Alpha-Pinene) was “significantly decreased” and the “TNFα production by pDC” value ([2]; 0.1 and 1.0 μM, CpG-ODN) was “significantly suppressed”.
